Calls of active or inactive are those of the source. No cut-off for these calls is given here.
Assays:
Format in all cases: cell-based
Details in all cases: HEK-293T
[1] = molecular target: T1, Nucleotide-binding oligomerization domain-containing protein 1 (Homo sapiens) (UniProt Q9Y239); assay: Induction of human NOD1 activity expressed in HEK293T cells assessed as NFKB activation at 0.1 to 1000 ng/ml by luciferase reporter assay
T1 sequence (whole entry): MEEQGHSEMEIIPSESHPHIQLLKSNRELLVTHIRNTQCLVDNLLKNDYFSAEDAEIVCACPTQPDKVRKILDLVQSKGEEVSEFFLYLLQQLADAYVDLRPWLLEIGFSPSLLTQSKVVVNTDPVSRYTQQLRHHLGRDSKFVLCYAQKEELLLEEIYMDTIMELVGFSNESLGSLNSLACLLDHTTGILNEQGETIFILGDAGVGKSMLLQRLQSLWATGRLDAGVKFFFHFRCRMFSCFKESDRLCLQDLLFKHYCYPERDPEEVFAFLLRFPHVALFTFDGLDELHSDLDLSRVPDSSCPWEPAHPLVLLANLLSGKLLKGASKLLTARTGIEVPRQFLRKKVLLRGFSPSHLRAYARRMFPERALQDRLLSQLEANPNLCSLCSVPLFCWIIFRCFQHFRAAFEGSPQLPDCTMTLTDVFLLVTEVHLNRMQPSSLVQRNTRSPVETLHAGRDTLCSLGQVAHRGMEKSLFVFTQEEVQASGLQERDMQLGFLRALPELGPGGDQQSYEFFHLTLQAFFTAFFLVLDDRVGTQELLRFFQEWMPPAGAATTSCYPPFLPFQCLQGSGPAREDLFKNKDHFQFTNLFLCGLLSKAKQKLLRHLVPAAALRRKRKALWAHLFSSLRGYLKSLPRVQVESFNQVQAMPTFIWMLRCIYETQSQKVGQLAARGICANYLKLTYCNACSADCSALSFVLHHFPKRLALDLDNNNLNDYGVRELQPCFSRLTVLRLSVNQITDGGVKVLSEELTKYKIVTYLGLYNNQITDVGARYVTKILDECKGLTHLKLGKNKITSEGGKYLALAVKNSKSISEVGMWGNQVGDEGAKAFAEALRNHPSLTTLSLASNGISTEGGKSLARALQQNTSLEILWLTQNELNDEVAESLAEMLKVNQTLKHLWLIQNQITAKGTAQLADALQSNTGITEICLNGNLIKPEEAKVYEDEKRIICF

[2] = molecular target: T1, Nucleotide-binding oligomerization domain-containing protein 1 (Homo sapiens); assay: Induction of human NOD1 activity expressed in HEK293T cells assessed as NFKB activation at 5 mM
[3] = molecular target: T1, Nucleotide-binding oligomerization domain-containing protein 1 (Homo sapiens); assay: Induction of human NOD1 activity expressed in HEK293T cells assessed as NFKB activation at 1 to 100 ng/ml by luciferase reporter assay

Row | SMILES | Activity [1] | Activity [2] | Activity [3]
1 | CC(=O)N[C@H]1[C@H](O[C@H]2[C@H](OC(C)C(=O)N[C@@H](C)C(=O)N[C@H](CCC(=O)N[C@@H](CCC[C@@H](N)C(=O)O)C(=O)O)C(=O)O)[C@@H](NC(C)=O)[C@@H]3OC[C@H]2O3)O[C@H](CO)[C@@H](O)[C@@H]1O (stereo partly specified) | – | – | Active
2 | CC(=O)N[C@@H]1[C@@H](OC(C)C(=O)N[C@@H](C)C(=O)N[C@H](CCC(=O)N[C@@H](CCC[C@@H](N)C(=O)O)C(=O)O)C(=O)O)[C@H](O[C@@H]2O[C@H](CO)[C@@H](O)[C@H](O)[C@H]2NC(C)=O)[C@@H](CO)O[C@H]1O (stereo partly specified) | Active | – | –
3 | C[C@H](N)C(=O)N[C@H](CCC(=O)N[C@@H](CCC[C@@H](N)C(=O)O)C(=O)O)C(=O)O | – | – | Active

Further lines, results first:

Row | Activity [1] | Activity [2] | Activity [3] | SMILES
4 | Active | Active | – | CC(=O)N[C@@H]1[C@@H](OC(C)C(=O)N[C@@H](C)C(=O)N[C@H](CCC(=O)N[C@@H](CCC[C@@H](N)C(=O)O)C(=O)O)C(=O)O)[C@H](O)[C@@H](CO)O[C@H]1O (stereo partly specified)
5 | – | – | Active | N[C@H](CCC[C@H](NC(=O)CC[C@@H](N)C(=O)O)C(=O)O)C(=O)O
